“Also recorded” adds a separate entry of the source.
Tests used:
[1] = SP16 pharmacokinetic profile, plasma concentration by LC/MS/MS; format: in vivo, rat; conditions: SP16, IV (5 mg/kg), normal rats
Method: In performing the assay, three normal rats were injected intravenously with 5 mg/kg SP16 and the plasma concentration of SP16 established at 8 time points following the injection. […] The assay was executed by Apredica, Boston, Mass.

hERG = biological target: T1, hERG (Homo sapiens, UniProt Q12809); test: hERG FastPatch assay; format: cell-based; conditions: test conc 0.008-25 μM
T1 construct: Apredica (contract study)

111 human receptors = test: GenSEP Explorer panel, human receptor panning; conditions: whole GenSEP Explorer panel
From the text: In addition, we also performed a profile using human receptor panning. The GenSEP Explorer panel contains 111 in vitro assay targets carefully selected to assess drug/chemical biological activities. Assay categories include GPCRs, Voltage-Gated Ion Channels, Ligand-Gated Ion Channels, Neurotransmitter transporters, Nuclear Receptors and Steroids as well as a diverse set of biochemical targets including Phosphodiesterases, Kinases and other relevant enzymes.

LPS challenged mice = test: Mouse LPS challenge model, serum TNF-alpha readout; format: in vivo; conditions: LPS challenged mice treated with alanine scanned SP16 peptides; compared to Dexamethasone (FIG. 10)
Method: In FIG. 10A the mice were treated with alanine scanned SP16 peptide. […] Based on this alanine screen, and without wishing to be bound by a theory, it appears that the C- and N-terminal amino acids contribute to the anti-inflammatory effect of the SP16 peptide. […] Groups of 3 animals were injected with 0.2 mg/kg peptide and subjected to LPS challenge. Serum TNF-alpha levels were determined by ELISA. Several peptides provided the same level of protection as 1 mg/kg Dexamethasone.
The ability of peptide drugs was tested to for their potential for the reduction of inflammatory cytokines following treatment with purified bacterial lipopolysaccharide (LPS)—a major component of bacterial cell wall of Gram negative bacteria. A model of inflammation was used wherein mice were injected with LPS, which induced a transient immune response and a surge of serum inflammatory cytokines. The immune response peaks after 90 minutes and subsides after 24 hours. The levels of key serum inflammatory markers were compared between mice treated and untreated with LPS 90 minutes after injection.
We designed 18 different peptides based on the hAAT sequence (Accession #AAB59371), and had these synthesized using conventional FMOC chemistry. To assess in vivo anti-inflammatory and therapeutic potential, the peptides were tested in a mouse lipopolysaccharide (LPS) challenge model with serum TNFα levels as readout. Using dexamethasone as reference, groups of 3 animals were IP injected with 0.2 mg/kg peptide 2 hours prior to an LPS challenge, and serum TNFα levels determined 30 min after the LPS challenge, by ELISA. The best performing peptide reduced serum TNFα levels equivalent to those achieved with 1 mg/kg dexamethasone. Next, shortened versions of this peptide were synthesized, tested in the mouse LPS challenge model, and a 17 amino acid peptide, SP16, emerged as a lead development candidate for further characterization. Next, SP16 was tested in a lethal endotoxemia model, which models endotoxemia following acute radiation exposure, where Gram negative bacteria leaking from the gastro-intestinal system can cause lethal endotoxemia.
Mice were injected with 0.5, 0.1, 0.02 and 0.004 mg of each peptide. Mice were also treated with dexamethasone as a positive control and vehicle as a negative control. Two hours later each mouse was injected with LPS. Samples were taken 90 minutes after LPS injection.
To evaluate the effect of different amino acids in the SP16 peptide for the immunomodulating effect, we created an alanine screen. […] The peptides wherein the substitution occurred within amino acids 4-14 of SP16, appeared to maintain and rather improve their capacity to reduce TNF-alpha levels compared to the control Dexamethasone. […]

TLR-2 = biological target: T2, TLR-2 (Mus musculus, UniProt Q9QUN7); test: TLR-2 indicator cell line assay (HEK-Blue mTLR2, Invivogen), secreted alkaline phosphatase; format: cell-based; conditions: 20 μg/ml peptide for 24 hours (FIGS. 12, 13)
T2 construct: host or cells: HEK-Blue mTLR2 (engineered HEK reporter line secreting alkaline phosphatase)
Method: Graph summarizing representative data from assays with an engineered TLR-2 indicator cell line (HEK-Blue™ mTLR2, Invivogen). Cells were incubated with the indicated concentrations of peptide for 24 hours. Upon TLR2 activation, the cells secrete alkaline phosphatase which can be assayed. The assay was done in triplicate and averages with standard deviations are plotted.
Graph summarizing data from an experiment where an engineered TLR-2 indicator cell line (HEK-Blue™ mTLR2, Invivogen) was used to test the impact of substituting amino acid residues of the SP16 peptide with alanine (“alanine scan”). Cells were incubated with 20 μg/ml of the indicated peptides for 24 hours. Upon TLR2 activation, the cells secrete alkaline phosphatase which can be assayed. The assay was done in triplicate and averages are plotted. Peptide sequences are shown in the following figure. *p<0.05, compared with scrambled control (SP34).
We also performed a peptide optimization assay using an alanine scan with the TLR-2 assay. Data was obtained using an experiment with an engineered TLR-2 indicator cell line (HEK-BLUE™ mTLR2, Invivogen). Cells were incubated with the 20 μg/ml of the indicated peptides for 24 hours. Upon TLR2 activation, the cells secrete alkaline phosphatase which can be assayed. The assay was done in triplicate and averages are plotted. […]

T1 sequence (Q12809 whole entry): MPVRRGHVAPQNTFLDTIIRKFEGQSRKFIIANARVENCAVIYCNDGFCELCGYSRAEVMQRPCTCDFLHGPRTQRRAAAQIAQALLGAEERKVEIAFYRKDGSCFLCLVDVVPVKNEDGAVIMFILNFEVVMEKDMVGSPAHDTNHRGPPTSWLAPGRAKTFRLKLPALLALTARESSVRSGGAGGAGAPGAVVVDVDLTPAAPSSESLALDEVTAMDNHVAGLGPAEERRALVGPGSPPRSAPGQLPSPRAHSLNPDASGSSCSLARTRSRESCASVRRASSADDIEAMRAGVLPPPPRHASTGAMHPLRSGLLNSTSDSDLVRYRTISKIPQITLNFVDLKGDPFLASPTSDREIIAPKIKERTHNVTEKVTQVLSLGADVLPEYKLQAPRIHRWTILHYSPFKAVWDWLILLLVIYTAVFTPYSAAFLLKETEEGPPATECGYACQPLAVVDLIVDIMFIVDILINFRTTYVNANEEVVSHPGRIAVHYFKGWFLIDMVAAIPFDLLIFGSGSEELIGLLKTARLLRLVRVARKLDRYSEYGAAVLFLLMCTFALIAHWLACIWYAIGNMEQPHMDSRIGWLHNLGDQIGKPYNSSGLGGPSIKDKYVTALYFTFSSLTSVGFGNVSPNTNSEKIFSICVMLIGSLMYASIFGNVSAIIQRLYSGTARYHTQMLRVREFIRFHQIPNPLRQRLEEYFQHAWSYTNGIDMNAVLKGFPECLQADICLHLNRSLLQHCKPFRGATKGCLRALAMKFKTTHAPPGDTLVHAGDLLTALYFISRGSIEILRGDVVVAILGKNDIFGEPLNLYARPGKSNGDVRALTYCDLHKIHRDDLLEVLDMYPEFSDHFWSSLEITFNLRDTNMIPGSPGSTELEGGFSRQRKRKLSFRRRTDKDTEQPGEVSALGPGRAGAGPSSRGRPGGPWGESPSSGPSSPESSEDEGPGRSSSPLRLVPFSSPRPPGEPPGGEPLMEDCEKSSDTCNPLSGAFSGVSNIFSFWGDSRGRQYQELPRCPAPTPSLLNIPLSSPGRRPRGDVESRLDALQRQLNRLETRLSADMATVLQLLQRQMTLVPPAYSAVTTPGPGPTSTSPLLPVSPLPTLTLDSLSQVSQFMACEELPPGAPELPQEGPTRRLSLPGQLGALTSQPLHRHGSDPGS
T2 sequence (Q9QUN7 25-784): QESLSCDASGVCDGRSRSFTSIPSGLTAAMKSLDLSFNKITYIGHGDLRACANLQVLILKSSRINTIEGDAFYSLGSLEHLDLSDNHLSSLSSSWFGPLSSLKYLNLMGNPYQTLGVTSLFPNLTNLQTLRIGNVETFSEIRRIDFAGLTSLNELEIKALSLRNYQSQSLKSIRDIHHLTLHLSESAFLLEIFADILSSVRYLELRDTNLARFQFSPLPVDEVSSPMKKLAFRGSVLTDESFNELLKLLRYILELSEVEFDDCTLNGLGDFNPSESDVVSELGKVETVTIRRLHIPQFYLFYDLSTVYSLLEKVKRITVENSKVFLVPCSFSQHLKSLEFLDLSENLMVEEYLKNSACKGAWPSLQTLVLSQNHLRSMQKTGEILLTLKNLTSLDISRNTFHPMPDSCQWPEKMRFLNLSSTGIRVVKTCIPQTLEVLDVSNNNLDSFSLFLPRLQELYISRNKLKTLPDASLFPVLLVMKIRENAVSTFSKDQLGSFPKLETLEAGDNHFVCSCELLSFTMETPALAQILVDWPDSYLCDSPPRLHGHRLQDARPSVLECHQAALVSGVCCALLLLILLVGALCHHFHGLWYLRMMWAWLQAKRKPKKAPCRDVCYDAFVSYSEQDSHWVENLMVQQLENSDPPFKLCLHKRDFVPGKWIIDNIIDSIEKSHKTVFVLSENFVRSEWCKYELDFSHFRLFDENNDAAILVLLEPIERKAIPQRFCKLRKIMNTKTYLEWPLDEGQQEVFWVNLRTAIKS

Row | Compound | TNF-alpha levels (LPS challenged mice) | also measured
1 | CC[C@H](C)[C@H](NC(=O)[C@H](CCSC)NC(=O)[C@H](CC(C)C)NC(=O)[C@H](Cc1ccccc1)NC(=O)[C@@H](NC(=O)[C@H](Cc1ccccc1)NC(=O)[C@@H]1CCCN1C(=O)[C@H](CCCCN)NC(=O)[C@H](CC(N)=O)NC(=O)[C@H](Cc1ccccc1)NC(=O)[C@H](CCCCN)NC(=O)[C@@H](N)C(C)C)C(C)C)C(=O)N[C@@H](CCC(=O)O)C(=O)N[C@@H](CCC(N)=O)C(=O)N[C@@H](CC(N)=O)C(=O)N[C@H](C(=O)N[C@@H](CCCCN)C(=O)O)[C@@H](C)O [SP16] |  | Last Time point [1]: 8 h; hERG inhibition (comment) (hERG): does not inhibit hERG; also recorded: No concentration-dependent inhibition; effect on 111 human receptors (111 human receptors): no effect
2 | V K F N K P F V F A A A E Q N T K (VKFNKPFVFAAAEQNTK; listed as Homo sapiens) [SP46] | reduce TNF-alpha levels more than Dexamethasone | 
3 | V K F A A A F V F L M I E Q N T K (VKFAAAFVFLMIEQNTK; listed as Homo sapiens) [SP40] | reduce TNF-alpha levels more than Dexamethasone | 
4 | A A A N K P F V F L M I E Q N T K (AAANKPFVFLMIEQNTK; listed as Homo sapiens) [SP37, SP16 with residues 1-3 substituted with alanines] |  | impact on TLR-2 signaling (alanine scan) (TLR-2): no impact on TLR2
5 | V K F N K P F V F L M I A A A T K (VKFNKPFVFLMIAAATK; listed as Homo sapiens) [SP49] | reduce TNF-alpha levels more than Dexamethasone | 
6 | V K F N K P A A A L M I E Q N T K (VKFNKPAAALMIEQNTK; listed as Homo sapiens) [SP43] | reduce TNF-alpha levels more than Dexamethasone | 

Source: patent US9951104B2, “Peptides and methods of using same” (Serpin Pharma, LLC, priority 2012, dated 2018)
